Experiments:
Gli-Luc/MEF cells = test: Gli-Luc/MEF assay; format: cell-based, mouse; details: Mus musculus, MEF; Shh-stimulated luciferase, 48 hours
Method in brief: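 Shh-stimulated luciferase readout (Bright-Glo) after 48 h, 37 °C, 5% CO2, used to derive IC50 of inhibition. Gli-Luc transgenic mouse MEFs received test compounds at final […] in 3-fold dilutions, with recombinant mouse Shh added immediately at final 2 μg/mL.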

human Smo = human Smo (Homo sapiens (Human), UniProt Q99835); test: Smo radioligand competition binding assay; details: for inhibition at 0.05 µM: 0.05 μM test compound, read-out: Smo % inh. @ 0.05 μM
human Smo, sequence (Q99835 181-787): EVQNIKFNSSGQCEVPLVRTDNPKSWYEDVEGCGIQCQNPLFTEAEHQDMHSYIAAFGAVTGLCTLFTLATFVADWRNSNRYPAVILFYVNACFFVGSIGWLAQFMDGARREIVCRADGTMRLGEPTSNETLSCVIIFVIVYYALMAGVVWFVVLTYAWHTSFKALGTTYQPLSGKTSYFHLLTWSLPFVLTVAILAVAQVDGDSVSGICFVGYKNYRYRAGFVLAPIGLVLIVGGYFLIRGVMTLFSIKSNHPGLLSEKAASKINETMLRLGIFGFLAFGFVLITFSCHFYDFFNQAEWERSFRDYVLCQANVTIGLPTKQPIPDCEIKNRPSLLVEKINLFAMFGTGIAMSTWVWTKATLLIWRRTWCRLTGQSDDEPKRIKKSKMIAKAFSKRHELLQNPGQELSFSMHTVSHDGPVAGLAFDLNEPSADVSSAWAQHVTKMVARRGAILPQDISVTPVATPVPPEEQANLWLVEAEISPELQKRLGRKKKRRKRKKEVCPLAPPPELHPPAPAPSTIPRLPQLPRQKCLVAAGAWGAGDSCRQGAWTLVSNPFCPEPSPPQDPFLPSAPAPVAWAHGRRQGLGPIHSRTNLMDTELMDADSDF
Method in brief: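 Membranes from HEK293 cells expressing surface human Smo 181-781 (40 μg protein/well) incubated 2 h at room temperature with test compound and tritiated Smo antagonist (3 nM), pH 7.5 Tris buffer; filtration and scintillation counting. Non-specific binding defined with 30 μM cold antagonist; IC50 from four-parameter sigmoidal fit.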

| SMILES | IC50 (Gli-Luc/MEF cells) | IC50 (human Smo) | inhibition at 0.05 µM (human Smo) |
| --- | --- | --- | --- |
| Cc1cccnc1-c1cc(N2CCC(C(=O)N(C)[C@@H]3CS(=O)(=O)C[C@H]3O)CC2)ncc1Cl [Example A-70, 1-(5′-chloro-3-methyl-2,4′-bipyridin-2′-yl)-N-[(3S,4S)-4-hydroxy-1,1-dioxidotetrahydro-3-thienyl]-N-methylpiperidine-4-carboxamide] | 27.3 nM | 42.4 nM | 105% |
| Cc1cccnc1-c1cc(N2CCC(C(=O)NC3CCCCC3O)CC2)ncc1Cl (stereo not drawn) [Example A-72, 1-(5′-chloro-3-methyl-2,4′-bipyridin-2′-yl)-N-(2-hydroxycyclohexyl)piperidine-4-carboxamide] | 22.5 nM | 28.3 nM | 96.3% |
| Cc1cccnc1-c1cc(N2CCC(C(=O)NCCc3nc4cccnc4n3C)CC2)ncc1Cl [Example A-73, 1-(5′-chloro-3-methyl-2,4′-bipyridin-2′-yl)-N-[2-(3-methyl-3H-imidazo[4,5-b]pyridin-2-yl)ethyl]piperidine-4-carboxamide] | 55.8 nM | 154 nM | 76.1% |
| Cc1cccnc1-c1cc(N2CCC(C(=O)NCC3CN(CC4CC4)C(=O)CO3)CC2)ncc1Cl (stereo not drawn) [Example A-74, 1-(5′-chloro-3-methyl-2,4′-bipyridin-2′-yl)-N-{[4-(cyclopropylmethyl)-5-oxomorpholin-2-yl]methyl}piperidine-4-carboxamide] | 23 nM | 25.5 nM | 97.8% |
| Cc1cccnc1-c1cc(N2CCC(C(=O)Nc3cccc(CO)n3)CC2)ncc1Cl [Example A-75, 1-(5′-chloro-3-methyl-2,4′-bipyridin-2′-yl)-N-[6-(hydroxymethyl)pyridin-2-yl]piperidine-4-carboxamide] | 47.9 nM | 93.3 nM | 88.6% |
| Cc1cccnc1-c1cc(N2CCC(C(=O)NC3(CO)CCCC3)CC2)ncc1Cl [Example A-76, 1-(5′-chloro-3-methyl-2,4′-bipyridin-2′-yl)-N-[1-(hydroxymethyl)cyclopentyl]piperidine-4-carboxamide] | 18.3 nM | 25.8 nM | 91.6% |
| Cc1cccnc1-c1cc(N2CCC(C(=O)NC3CCOCC3)CC2)ncc1Cl [Example A-77, 1-(5′-chloro-3-methyl-2,4′-bipyridin-2′-yl)-N-(tetrahydro-2H-pyran-4-yl)piperidine-4-carboxamide] | 48.4 nM | 52.5 nM | 87.7% |
| Cc1cccnc1-c1cc(N2CCC(C(=O)NC3CCOC3)CC2)ncc1Cl (stereo not drawn) [Example A-78, 1-(5′-chloro-3-methyl-2,4′-bipyridin-2′-yl)-N-(tetrahydrofuran-3-yl)piperidine-4-carboxamide] | 87.3 nM | 295 nM | 70.1% |
| COc1ccccc1CNC(=O)C1CCN(c2cc(-c3ncccc3C)c(Cl)cn2)CC1 [Example A-79, 1-(5′-chloro-3-methyl-2,4′-bipyridin-2′-yl)-N-(2-methoxybenzyl)piperidine-4-carboxamide] | 30.5 nM | 161 nM | 78.4% |
| Cc1cccnc1-c1cc(N2CCC(C(=O)NC3CCS(=O)(=O)CC3)CC2)ncc1Cl [Example A-80, 1-(5′-chloro-3-methyl-2,4′-bipyridin-2′-yl)-N-(1,1-dioxidotetrahydro-2H-thiopyran-4-yl)piperidine-4-carboxamide] | 16.5 nM | 33.6 nM | 101% |
| Cc1cccnc1-c1cc(N2CCC(C(=O)N[C@@H]3CCCC[C@H]3O)CC2)ncc1Cl [Example A-81, 1-(5′-chloro-3-methyl-2,4′-bipyridin-2′-yl)-N-[(1R,2R)-2-hydroxycyclohexyl]piperidine-4-carboxamide] | 15.7 nM | 32.6 nM | 97.9% |
| Cc1cccnc1-c1cc(N2CCC(C(=O)N3CCN(c4ccc(O)nn4)CC3)CC2)ncc1Cl [Example A-82, 6-(4-{[1-(5′-chloro-3-methyl-2,4′-bipyridin-2′-yl)piperidin-4-yl]carbonyl}piperazin-1-yl)pyridazin-3-ol] | 38.8 nM | 39.2 nM | 92.6% |
| Cc1cccnc1-c1cc(N2CCC(C(=O)NCC3CCCCO3)CC2)ncc1Cl (stereo not drawn) [Example A-83, 1-(5′-chloro-3-methyl-2,4′-bipyridin-2′-yl)-N-(tetrahydro-2H-pyran-2-ylmethyl)piperidine-4-carboxamide] | 48.5 nM | 138 nM | 78.9% |
| Cc1cccnc1-c1cc(N2CCC(C(=O)NC3CCOC4(CCN(C)CC4)C3)CC2)ncc1Cl (stereo not drawn) [Example A-84, 1-(5′-chloro-3-methyl-2,4′-bipyridin-2′-yl)-N-(9-methyl-1-oxa-9-azaspiro[5.5]undec-4-yl)piperidine-4-carboxamide] | 92 nM | 283 nM | 71.5% |
| Cc1cccnc1-c1cc(N2CCC(C(=O)N3CCCC[C@H]3CO)CC2)ncc1Cl [Example A-85, [(2S)-1-{[1-(5′-chloro-3-methyl-2,4′-bipyridin-2′-yl)piperidin-4-yl]carbonyl}piperidin-2-yl]methanol] | 116 nM | 42.4 nM | 92.7% |
| Cc1cccnc1-c1cc(N2CCC(C(=O)N3CCCC(O)C3CO)CC2)ncc1Cl (stereo not drawn) [Example A-86, 1-{[1-(5′-chloro-3-methyl-2,4′-bipyridin-2′-yl)piperidin-4-yl]carbonyl}-2-(hydroxymethyl)piperidin-3-ol] | 116 nM | 112 nM | 81.5% |
| Cc1cccnc1-c1cc(N2CCC(C(=O)NCCc3c[nH]cn3)CC2)ncc1Cl [Example A-87, 1-(5′-chloro-3-methyl-2,4′-bipyridin-2′-yl)-N-[2-(1H-imidazol-4-yl)ethyl]piperidine-4-carboxamide] | 123 nM | 134 nM | 81.8% |
| Cc1cccnc1-c1cc(N2CCC(C(=O)Nc3cnn(C)n3)CC2)ncc1Cl [Example A-88, 1-(5′-chloro-3-methyl-2,4′-bipyridin-2′-yl)-N-(2-methyl-2H-1,2,3-triazol-4-yl)piperidine-4-carboxamide] | 53 nM | 49 nM | 85.6% |
| Cc1cccnc1-c1cc(N2CCC(C(=O)N[C@H]3CC[C@H](CO)CC3)CC2)ncc1Cl [Example A-89, 1-(5′-chloro-3-methyl-2,4′-bipyridin-2′-yl)-N-[trans-4-(hydroxymethyl)cyclohexyl]piperidine-4-carboxamide] | 24.4 nM | 28.5 nM | 94.6% |
| CC(C)(O)CC(=O)N1CCN(c2ccc(Cl)c(-c3ccccn3)n2)CC1 [Example A-90, 4-[4-(3-chloro-2,2′-bipyridin-6-yl)piperazin-1-yl]-2-methyl-4-oxobutan-2-ol] | 66.9 nM | 111 nM | 82.5% |
| NS(=O)(=O)CC1CCN(c2ccc(Cl)c(-c3ccccn3)n2)CC1 [Example A-91, 1-[1-(3-chloro-2,2′-bipyridin-6-yl)piperidin-4-yl]methanesulfonamide] | 28.6 nM | 26.3 nM | 92.7% |
| CS(=O)(=O)CC1CCN(c2ncc(Cl)c(-c3ccccn3)n2)CC1 [Example A-92, 5-chloro-2-{4-[(methylsulfonyl)methyl]piperidin-1-yl}-4-pyridin-2-ylpyrimidine] | 59 nM | 132 nM | 79.8% |
| Cc1cccnc1-c1cc(N2CCN(C(=O)CCS(C)(=O)=O)CC2)ncc1Cl [Example A-93, 5′-chloro-3-methyl-2′-{4-[3-(methylsulfonyl)propanoyl]piperazin-1-yl}-2,4′-bipyridine] | 12.4 nM | 9.84 nM | 97.5% |
| Cc1cnc(-c2cc(N3CCC(O)CC3)ncc2Cl)c(C)c1 [Example A-94, 1-(5′-chloro-3,5-dimethyl-2,4′-bipyridin-2′-yl)piperidin-4-ol] | 28.4 nM | 44.2 nM | 88% |
| Cc1cccnc1-c1cc(N2CCC(NC(=O)CCS(C)(=O)=O)CC2)ncc1Cl [Example A-95, N-[1-(5′-chloro-3-methyl-2,4′-bipyridin-2′-yl)piperidin-4-yl]-3-(methylsulfonyl)propanamide] | 32 nM | 37 nM | 94% |
| Cc1cccnc1-c1cc(N2CCC(CNCCS(C)(=O)=O)CC2)ncc1Cl [Example A-96, N-{[1-(5′-chloro-3-methyl-2,4′-bipyridin-2′-yl)piperidin-4-yl]methyl}-2-(methylsulfonyl)ethanamine] | 62.5 nM | 102 nM | 84.1% |
| Cc1cccnc1-c1nc(N2CCC(CS(C)(=O)=O)CC2)ncc1Cl [Example A-97, 5-chloro-4-(3-methylpyridin-2-yl)-2-{4-[(methylsulfonyl)methyl]piperidin-1-yl}pyrimidine] | 13.3 nM | 30 nM | 95.4% |
| Cc1cnc(-c2cc(N3CCC(CS(C)(=O)=O)CC3)ncc2Cl)c(C)c1 [Example A-98, 5′-chloro-3,5-dimethyl-2′-{4-[(methylsulfonyl)methyl]piperidin-1-yl}-2,4′-bipyridine] | 9.4 nM | 12.4 nM | 96.6% |
| CS(=O)(=O)CCC(=O)N1CCN(c2ccc(Cl)c(-c3ccccn3)n2)CC1 [Example A-99, 3-chloro-6-{4-[3-(methylsulfonyl)propanoyl]piperazin-1-yl}-2,2′-bipyridine] | 23.9 nM | 33.1 nM | 94.4% |
| CC(=O)N1CCN(c2cc(-c3ncc(C)cc3C)c(Cl)cn2)CC1 [Example A-100, 2′-(4-acetylpiperazin-1-yl)-5′-chloro-3,5-dimethyl-2,4′-bipyridine] | 50.2 nM | 113 nM | 85.6% |
